According to US12589156B2, “Benzimidazole and benzimidazolone based protac compounds for the targeted degradation of leucine rich repeat kinase 2 (LRRK2)” (Arvinas Operations, Inc., priority 2023, dated 2026):

Biological target: T1, WT LRRK2 (Homo sapiens, UniProt Q5S007)
T1 construct: endogenous in cells; host or cells: HEK293 (endogenous LRRK2 gene knock-in tagged with HiBit; stably expressing CMV-driven firefly luciferase)
Assay: LRRK2 HiBit degradation assay (Nano-Glo Dual Luciferase) in HEK293 cells with HiBit-tagged endogenous LRRK2
Format: cell-based
How it was run: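 HEK293 cells carrying endogenous C-terminally HiBit-tagged LRRK2 and stably expressing CMV-driven firefly luciferase were treated for 24 h at 37° C with an 11-point 1:3 series from a 1 μM final top concentration. Nano-Glo Dual Luciferase read LRRK2-HiBit against firefly signal. Alamar Blue gave viability, and signals were normalized to DMSO median before curve fitting.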

[1] = HEK293, Table 2, maximal degradation, HiBit-tagged LRRK2 in HEK293 cells, 24 hours treatment
[2] = HEK293, Table 3, comparison with direct comparators, maximal degradation
[3] = Table 2, HiBit-tagged LRRK2 in HEK293 cells, 24 hours treatment, starting concentration 1 μM
[4] = Table 3, comparison with direct comparators, HiBit-tagged LRRK2 in HEK293 cells, 24 hours treatment
[5] = Table 2, maximal degradation, HiBit-tagged LRRK2 in HEK293 cells, 24 hours treatment

T1 sequence (Q5S007 whole entry): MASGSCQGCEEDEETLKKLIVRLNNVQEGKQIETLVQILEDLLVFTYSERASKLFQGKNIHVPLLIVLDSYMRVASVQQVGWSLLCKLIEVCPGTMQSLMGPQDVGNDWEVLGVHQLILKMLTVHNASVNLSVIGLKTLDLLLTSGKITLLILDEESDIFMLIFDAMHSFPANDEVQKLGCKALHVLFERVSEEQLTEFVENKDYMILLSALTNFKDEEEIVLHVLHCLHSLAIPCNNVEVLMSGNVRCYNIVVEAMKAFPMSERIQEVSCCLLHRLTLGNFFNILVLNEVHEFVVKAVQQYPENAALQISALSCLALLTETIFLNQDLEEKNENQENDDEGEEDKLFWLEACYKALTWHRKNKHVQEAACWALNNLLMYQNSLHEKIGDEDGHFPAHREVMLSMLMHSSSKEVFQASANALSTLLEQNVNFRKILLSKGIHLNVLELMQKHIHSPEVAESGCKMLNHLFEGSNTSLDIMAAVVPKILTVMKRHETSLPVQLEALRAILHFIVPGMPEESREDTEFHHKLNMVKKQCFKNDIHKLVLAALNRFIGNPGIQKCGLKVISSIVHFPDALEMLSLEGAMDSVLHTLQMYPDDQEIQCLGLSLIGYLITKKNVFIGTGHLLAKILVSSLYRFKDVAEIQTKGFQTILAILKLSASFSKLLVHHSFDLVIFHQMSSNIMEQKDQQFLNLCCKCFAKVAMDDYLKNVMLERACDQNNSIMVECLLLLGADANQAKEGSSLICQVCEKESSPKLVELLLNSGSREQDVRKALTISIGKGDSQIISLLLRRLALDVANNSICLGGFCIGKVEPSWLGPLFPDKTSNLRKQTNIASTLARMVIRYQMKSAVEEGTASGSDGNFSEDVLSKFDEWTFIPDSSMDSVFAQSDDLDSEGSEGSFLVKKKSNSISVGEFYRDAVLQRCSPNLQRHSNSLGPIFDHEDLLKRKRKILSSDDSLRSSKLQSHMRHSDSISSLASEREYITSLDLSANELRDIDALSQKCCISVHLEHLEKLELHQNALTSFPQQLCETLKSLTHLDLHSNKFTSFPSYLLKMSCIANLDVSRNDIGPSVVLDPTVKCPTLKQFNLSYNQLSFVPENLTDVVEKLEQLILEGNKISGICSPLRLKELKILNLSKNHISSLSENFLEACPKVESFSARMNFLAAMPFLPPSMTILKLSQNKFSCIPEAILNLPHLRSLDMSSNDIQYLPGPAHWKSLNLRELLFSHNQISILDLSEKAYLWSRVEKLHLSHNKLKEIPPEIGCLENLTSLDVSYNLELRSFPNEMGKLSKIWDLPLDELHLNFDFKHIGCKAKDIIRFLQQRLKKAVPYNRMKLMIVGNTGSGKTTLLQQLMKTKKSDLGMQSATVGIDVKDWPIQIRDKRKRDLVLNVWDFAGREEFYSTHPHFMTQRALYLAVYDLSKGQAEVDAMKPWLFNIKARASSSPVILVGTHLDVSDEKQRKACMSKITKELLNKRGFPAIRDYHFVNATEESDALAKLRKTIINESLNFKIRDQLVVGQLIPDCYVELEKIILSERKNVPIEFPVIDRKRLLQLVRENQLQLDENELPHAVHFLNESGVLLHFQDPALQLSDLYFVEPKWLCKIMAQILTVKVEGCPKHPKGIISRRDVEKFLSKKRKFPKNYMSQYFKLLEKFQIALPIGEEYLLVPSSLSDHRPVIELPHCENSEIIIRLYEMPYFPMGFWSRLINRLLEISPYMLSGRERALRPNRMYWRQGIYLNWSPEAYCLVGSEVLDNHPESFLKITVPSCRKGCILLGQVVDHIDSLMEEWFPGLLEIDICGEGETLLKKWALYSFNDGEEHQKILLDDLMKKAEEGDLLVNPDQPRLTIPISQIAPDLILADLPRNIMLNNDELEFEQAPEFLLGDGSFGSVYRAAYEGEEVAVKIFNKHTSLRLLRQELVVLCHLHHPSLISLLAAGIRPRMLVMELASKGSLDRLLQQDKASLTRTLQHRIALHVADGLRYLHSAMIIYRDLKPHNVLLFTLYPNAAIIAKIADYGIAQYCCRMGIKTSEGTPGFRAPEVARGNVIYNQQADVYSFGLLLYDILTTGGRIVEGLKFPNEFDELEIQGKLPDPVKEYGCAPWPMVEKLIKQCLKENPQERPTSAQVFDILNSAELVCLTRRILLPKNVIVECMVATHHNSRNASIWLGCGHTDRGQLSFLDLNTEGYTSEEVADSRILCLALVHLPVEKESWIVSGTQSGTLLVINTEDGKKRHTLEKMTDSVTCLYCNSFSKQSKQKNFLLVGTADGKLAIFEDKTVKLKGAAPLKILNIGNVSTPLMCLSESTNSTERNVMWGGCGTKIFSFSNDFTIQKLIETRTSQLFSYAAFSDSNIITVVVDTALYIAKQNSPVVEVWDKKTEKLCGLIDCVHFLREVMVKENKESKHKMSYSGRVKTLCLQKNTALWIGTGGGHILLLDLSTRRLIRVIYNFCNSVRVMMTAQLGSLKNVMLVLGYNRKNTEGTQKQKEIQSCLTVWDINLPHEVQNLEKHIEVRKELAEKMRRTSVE

Compound	Dmax [1] [%]	Dmax [2] [%]	DC50 [3] [nM]	DC50 [4] [nM]	Dmax [5] [%]	WT LRRK2 **Dmax (%) [5] [%]
Cn1c(=O)n(C2CCC(=O)NC2=O)c2ccc(N3CCC(CN4CCN(CC5CCN(c6cc(-c7n[nH]c8ccc(OC9(C)CC9)cc78)ncn6)CC5)C(C)(C)C4)CC3)cc21 (stereo not drawn) [Compound 14, 3-{5-[4-({3,3-dimethyl-4-[(1-{6-[5-(1-methylcyclopropoxy)-1H-indazol-3-yl]pyrimidin-4-yl}piperidin-4-yl)methyl]piperazin-1-yl}methyl)piperidin-1-yl]-3-methyl-2-oxo-2,3-dihydro-1H-1,3-benzodiazol-1-yl}piperidine-2,6-dione]	58	58	0.22	0.22		
CC1(Oc2ccc3[nH]nc(-c4cc(N5CCN(C[C@H]6CC[C@H](OC7CCN(c8cc9ncn(C%10CCC(=O)NC%10=O)c9cc8F)CC7)CC6)CC5)ncn4)c3c2)CC1 (stereo partly drawn) [Compound 44, rel-3-[6-fluoro-5-(4-{[(1r,4r)-4-[(4-{6-[5-(1-methylcyclopropoxy)-1H-indazol-3-yl]pyrimidin-4-yl}piperazin-1-yl)methyl]cyclohexyl]oxy}piperidin-1-yl)-1H-1,3-benzodiazol-1-yl]piperidine-2,6-dione]	50	50	6.3	6.3		
CC(C)Oc1cc2c(-c3cc(N4CCC(O[C@H]5C[C@H](OC6CCN(c7ccc8c(c7)n(C)c(=O)n8C7CCC(=O)NC7=O)CC6)C5)CC4)ncn3)n[nH]c2cn1 (single isomer, unassigned) [Compound 31, rel-3-(3-methyl-2-oxo-5-{4-[(1r,3r)-3-[(1-{6-[5-(propan-2-yloxy)-1H-pyrazolo[3,4-c]pyridin-3-yl]pyrimidin-4-yl}piperidin-4-yl)oxy]cyclobutoxy]piperidin-1-yl}-2,3-dihydro-1H-1,3-benzodiazol-1-yl)piperidine-2,6-dione]			160		61	
CC1(Oc2ccc3[nH]nc(-c4cc(N5CCC(CN6CCN(CC7CCN(c8ccc9c(ncn9C9CCC(=O)NC9=O)c8F)CC7)CC6(C)C)CC5)ncn4)c3c2)CC1 (stereo not drawn) [Compound 41, 3-{5-[4-({3,3-dimethyl-4-[(1-{6-[5-(1-methylcyclopropoxy)-1H-indazol-3-yl]pyrimidin-4-yl}piperidin-4-yl)methyl]piperazin-1-yl}methyl)piperidin-1-yl]-4-fluoro-1H-1,3-benzodiazol-1-yl}piperidine-2,6-dione]	49	49	3.7	3.7		
CC(C)n1c(=O)n(C2CCC(=O)NC2=O)c2ccc(N3CCC(O[C@H]4CC[C@H](CN5CCN(c6cc(-c7n[nH]c8ccc(OC(C)(C)C)cc78)ncn6)CC5)CC4)CC3)cc21 (single isomer, unassigned) [Compound 56, rel-3-[2-oxo-3-(propan-2-yl)-5-(4-{[(1r,4r)-4-[(4-{6-[5-(tert-butoxy)-1H-indazol-3-yl]pyrimidin-4-yl}piperazin-1-yl)methyl]cyclohexyl]oxy}piperidin-1-yl)-2,3-dihydro-1H-1,3-benzodiazol-1-yl]piperidine-2,6-dione]	43		0.95			
CCOc1ccc2[nH]nc(-c3cc(N4CCN(C[C@H]5CC[C@H](OC6CCN(c7ccc8c(c7)n(C)c(=O)n8C7CCC(=O)NC7=O)CC6)CC5)CC4)ncn3)c2c1 (single isomer, unassigned) [Compound 61, rel-3-[3-methyl-2-oxo-5-(4-{[(1r,4r)-4-({4-[6-(5-ethoxy-1H-indazol-3-yl)pyrimidin-4-yl]piperazin-1-yl}methyl)cyclohexyl]oxy}piperidin-1-yl)-2,3-dihydro-1H-1,3-benzodiazol-1-yl]piperidine-2,6-dione]	48		0.51			
Cn1c(=O)n(C2CCC(=O)NC2=O)c2cccc(N3CCC(CN4CCN(CC5CCN(c6cc(-c7n[nH]c8ccc(OC9(C)CC9)cc78)ncn6)CC5)C(C)(C)C4)CC3)c21 (stereo not drawn) [Compound 8, 3-{4-[4-({3,3-dimethyl-4-[(1-{6-[5-(1-methylcyclopropoxy)-1H-indazol-3-yl]pyrimidin-4-yl}piperidin-4-yl)methyl]piperazin-1-yl}methyl)piperidin-1-yl]-3-methyl-2-oxo-2,3-dihydro-1H-1,3-benzodiazol-1-yl}piperidine-2,6-dione]	65	65	1.2	1.2		
Cn1c(=O)n(C2CCC(=O)NC2=O)c2ccc(N3CCC(O[C@H]4CC[C@H](CN5CCN(c6cc(-c7n[nH]c8ccc([C@]9(C#N)CC9%10CC%10)cc78)ncn6)CC5)CC4)CC3)cc21 (single isomer, unassigned) [Compound 66, (1R**)-1-{3-[6-(4-{[(1r*,4r*)-4-({1-[1-(2,6-dioxopiperidin-3-yl)-3-methyl-2-oxo-2,3-dihydro-1H-1,3-benzodiazol-5-yl]piperidin-4-yl}oxy)cyclohexyl]methyl}piperazin-1-yl)pyrimidin-4-yl]-1H-indazol-5-yl}spiro[2.2]pentane-1-carbonitrile]	61		0.14			
COc1c(N2CCC(O[C@H]3CC[C@H](CN4CCN(c5cc(-c6n[nH]c7cnc(OC8(C)CC8)cc67)ncn5)CC4)CC3)CC2)ccc2c1CN(C1CCC(=O)NC1=O)C2=O (stereo partly drawn) [Comparative Example 1, reference compound]		52		5.6		
CC1(Oc2ccc3[nH]nc(-c4cc(N5CCN(C[C@H]6CC[C@H](OC7CCN(c8cc(F)c9c(c8)ncn9C8CCC(=O)NC8=O)CC7)CC6)CC5)ncn4)c3c2)CC1 (stereo partly drawn) [Compound 43, rel-3-[7-fluoro-5-(4-{[(1r,4r)-4-[(4-{6-[5-(1-methylcyclopropoxy)-1H-indazol-3-yl]pyrimidin-4-yl}piperazin-1-yl)methyl]cyclohexyl]oxy}piperidin-1-yl)-1H-1,3-benzodiazol-1-yl]piperidine-2,6-dione]	49	49	6.2	6.2		
CC(C)Oc1ccc2[nH]nc(-c3cc(N4CCN(CC5CCC(OC6CCN(c7ccc8c(c7)n(C)c(=O)n8C7CCC(=O)NC7=O)CC6)CC5)CC4)ncn3)c2c1 (stereo not drawn) [Compound 55, rel-3-[3-methyl-2-oxo-5-(4-{[(1r,4r)-4-[(4-{6-[5-(propan-2-yloxy)-1H-indazol-3-yl]pyrimidin-4-yl}piperazin-1-yl)methyl]cyclohexyl]oxy}piperidin-1-yl)-2,3-dihydro-1H-1,3-benzodiazol-1-yl]piperidine-2,6-dione]			1.5			53
Cn1c(=O)n(C2CCC(=O)NC2=O)c2cc(N3CCC(CN4CCN(CC5CCN(c6cc(-c7n[nH]c8ccc(OC9(C)CC9)cc78)ncn6)CC5)C(C)(C)C4)CC3)ccc21 (stereo not drawn) [Compound 17, 3-{6-[4-({3,3-dimethyl-4-[(1-{6-[5-(1-methylcyclopropoxy)-1H-indazol-3-yl]pyrimidin-4-yl}piperidin-4-yl)methyl]piperazin-1-yl}methyl)piperidin-1-yl]-3-methyl-2-oxo-2,3-dihydro-1H-1,3-benzodiazol-1-yl}piperidine-2,6-dione]			≥ 1000			
CC1(Oc2ccc3[nH]nc(-c4cc(N5CCC(CN6CCN(CC7CCN(c8cccc9c8ncn9C8CCC(=O)NC8=O)CC7)CC6)CC5)ncn4)c3c2)CC1 (stereo not drawn) [Compound 70, 3-{4-[4-({4-[(1-{6-[5-(1-methylcyclopropoxy)-1H-indazol-3-yl]pyrimidin-4-yl}piperidin-4-yl)methyl]piperazin-1-yl}methyl)piperidin-1-yl]-1H-1,3-benzodiazol-1-yl}piperidine-2,6-dione]	33	33	20	20		
Cn1c(=O)n(C2CCC(=O)NC2=O)c2ccc(N3CCC(O[C@H]4C[C@H](OC5CCN(c6cc(-c7n[nH]c8ccc(OC9(C)CC9)cc78)ncn6)CC5)C4)CC3)cc21 (single isomer, unassigned) [Compound 29, rel-3-(3-methyl-2-oxo-5-{4-[(1r,3r)-3-[(1-{6-[5-(1-methylcyclopropoxy)-1H-indazol-3-yl]pyrimidin-4-yl}piperidin-4-yl)oxy]cyclobutoxy]piperidin-1-yl}-2,3-dihydro-1H-1,3-benzodiazol-1-yl)piperidine-2,6-dione]			0.16		54	
CC(C)Oc1cc2c(-c3cc(N4CCN(C[C@H]5CC[C@H](OC6CCN(c7ccc8c(c7)n(C)c(=O)n8C7CCC(=O)NC7=O)CC6)CC5)CC4)ncn3)n[nH]c2cn1 (single isomer, unassigned) [Compound 20, rel-3-[3-methyl-2-oxo-5-(4-{[(1r,4r)-4-[(4-{6-[5-(propan-2-yloxy)-1H-pyrazolo[3,4-c]pyridin-3-yl]pyrimidin-4-yl}piperazin-1-yl)methyl]cyclohexyl]oxy}piperidin-1-yl)-2,3-dihydro-1H-1,3-benzodiazol-1-yl]piperidine-2,6-dione]	40		0.56			
CC1(Oc2ccc3[nH]nc(-c4cc(N5CCN(C[C@H]6CC[C@H](OC7CCN(c8cccc9c8ncn9C8CCC(=O)NC8=O)CC7)CC6)CC5)ncn4)c3c2)CC1 (stereo partly drawn) [Compound 3, 3-[4-(4-{[(1r,4r)-4-[(4-{6-[5-(1-methylcyclopropoxy)-1H-indazol-3-yl]pyrimidin-4-yl}piperazin-1-yl)methyl]cyclohexyl]oxy}piperidin-1-yl)-1H-1,3-benzodiazol-1-yl]piperidine-2,6-dione]	30	30	28	28		
